Measured values taken from ChEMBL document CHEMBL4507256 (2021).

Assays:
[1] = target: BMP-2-inducible protein kinase (Homo sapiens) (UniProt Q9NSY1); conditions: Compound concentration 1000.0 nM
[2] = target: Tyrosine-protein kinase JAK1 (Homo sapiens) (UniProt P23458); conditions: Compound concentration 1000.0 nM
[3] = target: Dual specificity mitogen-activated protein kinase kinase 2 (Homo sapiens) (UniProt P36507); conditions: Compound concentration 1000.0 nM
[4] = target: Homeodomain-interacting protein kinase 2 (Homo sapiens) (UniProt Q9H2X6); conditions: Compound concentration 1000.0 nM
[5] = tested on: eIF-2-alpha kinase GCN2 (Homo sapiens), Q9P2K8 [S808G]; conditions: Compound concentration 1000.0 nM
Chain of eIF-2-alpha kinase GCN2 (Homo sapiens), Q9P2K8 [S808G] (Q9P2K8 whole entry S808G): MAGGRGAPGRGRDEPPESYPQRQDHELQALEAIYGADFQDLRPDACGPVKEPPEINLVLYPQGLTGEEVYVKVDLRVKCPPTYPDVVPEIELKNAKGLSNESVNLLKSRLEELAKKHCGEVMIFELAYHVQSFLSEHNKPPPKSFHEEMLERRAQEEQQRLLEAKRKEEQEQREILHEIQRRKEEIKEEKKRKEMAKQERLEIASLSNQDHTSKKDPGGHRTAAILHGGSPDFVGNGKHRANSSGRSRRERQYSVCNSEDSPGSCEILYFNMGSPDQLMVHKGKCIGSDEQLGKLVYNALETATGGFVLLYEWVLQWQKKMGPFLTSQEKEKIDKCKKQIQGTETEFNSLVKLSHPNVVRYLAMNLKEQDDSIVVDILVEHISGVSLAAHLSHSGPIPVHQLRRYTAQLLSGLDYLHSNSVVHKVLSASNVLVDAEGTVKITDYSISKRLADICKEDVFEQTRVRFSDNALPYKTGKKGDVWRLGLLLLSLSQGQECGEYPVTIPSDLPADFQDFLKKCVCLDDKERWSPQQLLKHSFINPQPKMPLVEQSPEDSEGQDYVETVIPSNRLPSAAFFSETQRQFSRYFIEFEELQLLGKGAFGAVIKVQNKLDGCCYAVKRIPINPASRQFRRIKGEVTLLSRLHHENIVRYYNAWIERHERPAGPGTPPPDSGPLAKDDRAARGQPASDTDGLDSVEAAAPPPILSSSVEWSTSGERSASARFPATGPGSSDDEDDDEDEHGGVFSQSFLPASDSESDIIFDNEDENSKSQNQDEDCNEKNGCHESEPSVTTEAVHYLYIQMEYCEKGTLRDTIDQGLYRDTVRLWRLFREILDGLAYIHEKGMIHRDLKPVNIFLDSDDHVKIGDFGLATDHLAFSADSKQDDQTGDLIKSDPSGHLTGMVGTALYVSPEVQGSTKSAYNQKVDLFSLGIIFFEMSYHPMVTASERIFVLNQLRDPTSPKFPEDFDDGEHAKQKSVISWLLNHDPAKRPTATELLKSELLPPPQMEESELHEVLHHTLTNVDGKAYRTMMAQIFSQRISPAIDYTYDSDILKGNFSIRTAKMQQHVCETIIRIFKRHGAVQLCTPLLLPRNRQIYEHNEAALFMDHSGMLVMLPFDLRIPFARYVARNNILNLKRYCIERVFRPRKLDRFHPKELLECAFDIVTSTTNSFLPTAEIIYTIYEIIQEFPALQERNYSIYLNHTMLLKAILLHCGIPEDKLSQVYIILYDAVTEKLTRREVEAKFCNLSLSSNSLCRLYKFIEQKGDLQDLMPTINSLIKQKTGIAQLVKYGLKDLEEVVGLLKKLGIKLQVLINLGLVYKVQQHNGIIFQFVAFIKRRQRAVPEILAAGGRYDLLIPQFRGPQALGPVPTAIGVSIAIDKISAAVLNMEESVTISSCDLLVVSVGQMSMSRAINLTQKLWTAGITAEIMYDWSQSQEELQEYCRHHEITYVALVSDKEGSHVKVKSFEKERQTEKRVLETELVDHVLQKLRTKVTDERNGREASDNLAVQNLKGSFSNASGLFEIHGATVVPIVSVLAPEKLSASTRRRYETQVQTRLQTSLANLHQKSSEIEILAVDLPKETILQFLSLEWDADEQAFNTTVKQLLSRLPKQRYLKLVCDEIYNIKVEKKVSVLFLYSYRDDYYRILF

[6] = target: Macrophage colony-stimulating factor 1 receptor (Homo sapiens) (UniProt P07333); conditions: Compound concentration 1000.0 nM
[7] = target: Ephrin type-A receptor 1 (Homo sapiens) (UniProt P21709); conditions: Compound concentration 1000.0 nM
[8] = target: Mitogen-activated protein kinase kinase kinase 14 (Homo sapiens) (UniProt Q99558); conditions: Compound concentration 1000.0 nM
Chain of Mitogen-activated protein kinase kinase kinase 14 (Homo sapiens) (Q99558 whole entry, looked up): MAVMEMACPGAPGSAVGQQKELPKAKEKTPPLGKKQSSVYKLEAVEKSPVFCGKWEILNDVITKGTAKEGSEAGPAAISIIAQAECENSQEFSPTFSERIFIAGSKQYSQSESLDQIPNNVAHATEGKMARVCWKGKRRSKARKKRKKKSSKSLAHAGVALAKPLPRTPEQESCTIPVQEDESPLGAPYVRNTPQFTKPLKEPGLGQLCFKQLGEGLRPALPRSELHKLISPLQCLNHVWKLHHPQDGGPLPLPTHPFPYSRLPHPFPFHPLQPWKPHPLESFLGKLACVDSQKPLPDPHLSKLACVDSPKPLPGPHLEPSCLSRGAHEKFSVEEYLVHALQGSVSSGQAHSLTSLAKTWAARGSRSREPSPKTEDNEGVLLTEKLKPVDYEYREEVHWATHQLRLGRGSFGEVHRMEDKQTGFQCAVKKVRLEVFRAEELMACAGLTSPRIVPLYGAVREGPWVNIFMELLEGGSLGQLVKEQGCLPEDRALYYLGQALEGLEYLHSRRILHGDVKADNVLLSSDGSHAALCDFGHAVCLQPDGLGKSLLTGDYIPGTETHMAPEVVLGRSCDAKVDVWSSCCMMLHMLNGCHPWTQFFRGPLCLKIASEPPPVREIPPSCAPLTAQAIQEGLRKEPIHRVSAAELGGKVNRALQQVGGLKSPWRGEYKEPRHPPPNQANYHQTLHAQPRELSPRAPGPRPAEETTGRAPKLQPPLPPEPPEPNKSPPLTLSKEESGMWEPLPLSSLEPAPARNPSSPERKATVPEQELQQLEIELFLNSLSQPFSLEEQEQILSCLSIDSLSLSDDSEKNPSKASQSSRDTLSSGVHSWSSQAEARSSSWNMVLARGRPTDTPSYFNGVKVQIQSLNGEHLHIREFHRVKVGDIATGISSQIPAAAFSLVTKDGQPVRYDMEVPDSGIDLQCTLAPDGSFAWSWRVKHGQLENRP

[9] = target: Fibroblast growth factor receptor 2 (Homo sapiens) (UniProt P21802); conditions: Compound concentration 1000.0 nM
[10] = target: T1, GABA-A receptor; anion channel (Rattus norvegicus) (UniProt O09028+P15431+P18506+P18508+P19969+P20236+P23574+P23576+P28471+P28473+P30191+P62813+P63079+P63138+Q91ZM7+Q9ES14); conditions: Compound concentration 10.0 uM
[11] = target: Cyclin-dependent kinase 9 (Homo sapiens) (UniProt P50750); conditions: Compound concentration 1000.0 nM
[12] = target: Sigma non-opioid intracellular receptor 1 (Homo sapiens, UniProt Q99720); conditions: Compound concentration 10.0 uM
[13] = target: Calcium-dependent protein kinase 1 (Plasmodium falciparum) (UniProt P62344); conditions: Compound concentration 1000.0 nM
[14] = target: Receptor tyrosine-protein kinase erbB-4 (Homo sapiens) (UniProt Q15303); conditions: Compound concentration 1000.0 nM
[15] = target: ALK tyrosine kinase receptor (Homo sapiens) (UniProt Q9UM73); conditions: Compound concentration 1000.0 nM
[16] = target: Serine/threonine-protein kinase LATS1 (Homo sapiens) (UniProt O95835); conditions: Compound concentration 1000.0 nM
[17] = target: Ribosomal protein S6 kinase alpha-2 (Homo sapiens) (UniProt Q15349); conditions: Compound concentration 1000.0 nM
[18] = target: Mitogen-activated protein kinase kinase kinase 4 (Homo sapiens) (UniProt Q9Y6R4); conditions: Compound concentration 1000.0 nM
[19] = target: Mitogen-activated protein kinase 7 (Homo sapiens) (UniProt Q13164); conditions: Compound concentration 1000.0 nM
Chain of Mitogen-activated protein kinase 7 (Homo sapiens) (Q13164 2-816 limits assumed): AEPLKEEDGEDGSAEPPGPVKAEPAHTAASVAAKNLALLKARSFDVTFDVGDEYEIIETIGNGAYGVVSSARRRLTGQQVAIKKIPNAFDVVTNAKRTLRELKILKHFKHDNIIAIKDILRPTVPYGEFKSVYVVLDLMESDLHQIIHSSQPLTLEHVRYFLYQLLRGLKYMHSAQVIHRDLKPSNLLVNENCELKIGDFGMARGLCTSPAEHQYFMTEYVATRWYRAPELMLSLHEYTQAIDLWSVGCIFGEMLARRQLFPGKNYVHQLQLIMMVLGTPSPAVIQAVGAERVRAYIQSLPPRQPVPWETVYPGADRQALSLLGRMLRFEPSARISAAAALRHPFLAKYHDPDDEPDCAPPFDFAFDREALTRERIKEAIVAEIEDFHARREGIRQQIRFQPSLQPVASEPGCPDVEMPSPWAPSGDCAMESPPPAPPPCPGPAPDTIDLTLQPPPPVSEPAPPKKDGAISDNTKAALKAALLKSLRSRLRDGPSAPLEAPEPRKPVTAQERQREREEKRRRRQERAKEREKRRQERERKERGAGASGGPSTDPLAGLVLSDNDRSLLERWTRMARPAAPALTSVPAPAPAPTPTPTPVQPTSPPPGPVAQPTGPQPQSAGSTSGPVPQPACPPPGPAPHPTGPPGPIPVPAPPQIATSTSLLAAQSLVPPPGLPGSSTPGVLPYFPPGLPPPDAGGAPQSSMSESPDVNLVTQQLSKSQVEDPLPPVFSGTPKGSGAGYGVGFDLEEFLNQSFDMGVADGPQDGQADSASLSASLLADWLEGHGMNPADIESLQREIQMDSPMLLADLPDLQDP

[20] = target: Serine/threonine-protein kinase tousled-like 1 (Homo sapiens) (UniProt Q9UKI8); conditions: Compound concentration 1000.0 nM
[21] = target: Serine/threonine-protein kinase 16 (Homo sapiens) (UniProt O75716); conditions: Compound concentration 1000.0 nM
[22] = target: Mitogen-activated protein kinase 9 (Homo sapiens) (UniProt P45984); conditions: Compound concentration 1000.0 nM
[23] = target: Tyrosine-protein kinase ITK/TSK (Homo sapiens) (UniProt Q08881); conditions: Compound concentration 1000.0 nM
[24] = target: Serine/threonine-protein kinase 32B (Homo sapiens) (UniProt Q9NY57); conditions: Compound concentration 1000.0 nM
[25] = target: Ankyrin repeat and protein kinase domain-containing protein 1 (Homo sapiens) (UniProt Q8NFD2); conditions: Compound concentration 1000.0 nM
[26] = target: Calcium/calmodulin-dependent protein kinase type 1G (Homo sapiens) (UniProt Q96NX5); conditions: Compound concentration 1000.0 nM
[27] = target: Alpha-1B adrenergic receptor (Homo sapiens) (UniProt P35368); conditions: Compound concentration 10.0 uM
[28] = target: Tyrosine-protein kinase HCK (Homo sapiens) (UniProt P08631); conditions: Compound concentration 1000.0 nM
[29] = target: Serine/threonine-protein kinase VRK2 (Homo sapiens) (UniProt Q86Y07); conditions: Compound concentration 1000.0 nM
[30] = target: Serine/threonine-protein kinase ULK3 (Homo sapiens) (UniProt Q6PHR2); conditions: Compound concentration 1000.0 nM
Chain of Serine/threonine-protein kinase ULK3 (Homo sapiens) (Q6PHR2 whole entry): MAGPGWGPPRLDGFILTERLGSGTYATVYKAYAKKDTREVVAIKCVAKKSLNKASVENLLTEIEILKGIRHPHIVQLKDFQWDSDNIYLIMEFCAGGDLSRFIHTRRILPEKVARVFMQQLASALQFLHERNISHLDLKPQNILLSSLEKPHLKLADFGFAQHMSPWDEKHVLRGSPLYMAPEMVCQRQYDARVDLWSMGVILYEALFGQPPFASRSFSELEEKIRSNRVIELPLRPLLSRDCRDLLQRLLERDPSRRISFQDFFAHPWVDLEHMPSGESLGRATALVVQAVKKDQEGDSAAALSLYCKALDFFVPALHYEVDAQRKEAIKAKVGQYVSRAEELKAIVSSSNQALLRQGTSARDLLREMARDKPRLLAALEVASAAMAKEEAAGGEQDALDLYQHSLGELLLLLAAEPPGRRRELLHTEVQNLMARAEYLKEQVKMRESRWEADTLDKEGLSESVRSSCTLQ

[31] = target: Muscle, skeletal receptor tyrosine-protein kinase (Homo sapiens) (UniProt O15146); conditions: Compound concentration 1000.0 nM
[32] = target: 5'-AMP-activated protein kinase catalytic subunit alpha-2 (Homo sapiens) (UniProt P54646); conditions: Compound concentration 1000.0 nM
Chain of 5'-AMP-activated protein kinase catalytic subunit alpha-2 (Homo sapiens) (P54646 whole entry, looked up): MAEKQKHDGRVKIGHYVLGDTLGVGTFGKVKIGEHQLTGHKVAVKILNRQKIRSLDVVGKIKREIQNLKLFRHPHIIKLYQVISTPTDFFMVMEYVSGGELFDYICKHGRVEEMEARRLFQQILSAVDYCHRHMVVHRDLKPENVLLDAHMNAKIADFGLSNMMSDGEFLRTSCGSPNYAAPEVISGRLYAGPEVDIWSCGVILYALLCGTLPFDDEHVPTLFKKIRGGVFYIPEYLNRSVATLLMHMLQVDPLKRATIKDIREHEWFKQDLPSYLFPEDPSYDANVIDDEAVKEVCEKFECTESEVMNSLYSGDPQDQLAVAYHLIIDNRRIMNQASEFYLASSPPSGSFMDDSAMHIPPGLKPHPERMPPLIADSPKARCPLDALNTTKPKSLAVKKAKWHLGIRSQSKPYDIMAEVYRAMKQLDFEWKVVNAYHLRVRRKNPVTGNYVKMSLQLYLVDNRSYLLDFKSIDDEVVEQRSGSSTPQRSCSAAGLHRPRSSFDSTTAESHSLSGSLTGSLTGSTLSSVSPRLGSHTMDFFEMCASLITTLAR

[33] = target: Serine/threonine-protein kinase Nek3 (Homo sapiens) (UniProt P51956); conditions: Compound concentration 1000.0 nM
Chain of Serine/threonine-protein kinase Nek3 (Homo sapiens) (P51956 whole entry): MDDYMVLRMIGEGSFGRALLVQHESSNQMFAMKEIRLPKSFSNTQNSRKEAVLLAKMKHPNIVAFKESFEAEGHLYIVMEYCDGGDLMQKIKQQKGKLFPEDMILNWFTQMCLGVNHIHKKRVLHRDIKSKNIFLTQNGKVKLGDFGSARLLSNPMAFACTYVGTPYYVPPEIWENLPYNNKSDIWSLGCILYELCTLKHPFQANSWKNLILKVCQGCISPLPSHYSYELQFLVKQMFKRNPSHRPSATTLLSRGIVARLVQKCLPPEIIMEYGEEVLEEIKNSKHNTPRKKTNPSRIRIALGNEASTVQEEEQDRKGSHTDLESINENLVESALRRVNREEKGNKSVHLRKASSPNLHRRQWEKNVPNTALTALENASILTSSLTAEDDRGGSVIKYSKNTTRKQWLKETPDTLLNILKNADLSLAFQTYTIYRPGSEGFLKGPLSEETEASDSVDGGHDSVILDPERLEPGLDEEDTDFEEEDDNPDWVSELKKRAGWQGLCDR

[34] = tested on: Tyrosine-protein kinase ABL1 (Homo sapiens), P00519 [E255K]; conditions: Compound concentration 1000.0 nM
[35] = target: Cyclin-dependent kinase 15 (Homo sapiens) (UniProt Q96Q40); conditions: Compound concentration 1000.0 nM
[36] = target: T1, GABA-A receptor; anion channel (Rattus norvegicus); conditions: Compound concentration 10.0 uM; remark: listed apart in the source
[37] = target: MAP/microtubule affinity-regulating kinase 3 (Homo sapiens) (UniProt P27448); conditions: Compound concentration 1000.0 nM
[38] = target: Calcium/calmodulin-dependent protein kinase type 1B (Homo sapiens) (UniProt Q6P2M8); conditions: Compound concentration 1000.0 nM
[39] = target: D(1B) dopamine receptor (Homo sapiens) (UniProt P21918); conditions: Compound concentration 10.0 uM
[40] = target: Ephrin type-B receptor 6 (Homo sapiens) (UniProt O15197); conditions: Compound concentration 1000.0 nM
[41] = target: Mitogen-activated protein kinase 15 (Homo sapiens) (UniProt Q8TD08); conditions: Compound concentration 1000.0 nM
[42] = target: cGMP-dependent protein kinase 2 (Homo sapiens) (UniProt Q13237); conditions: Compound concentration 1000.0 nM

What does the source list for CCC(=N\O)/C(C)=C/c1ccc(F)cc1 [A-079]?
residual activity [1]: 80%; residual activity [2]: 88%; residual activity [3]: 100%; residual activity [4]: 100%; residual activity [5]: 70%; residual activity [6]: 91%; residual activity [7]: 82%; residual activity [8]: 84%; residual activity [9]: 93%; inhibition [10]: 14.7%; residual activity [11]: 93%; inhibition [12]: 84%; residual activity [13]: 87%; residual activity [14]: 66%; residual activity [15]: 87%; residual activity [16]: 100%; residual activity [17]: 100%; residual activity [18]: 99%; residual activity [19]: 88%; residual activity [20]: 100%; residual activity [21]: 97%; residual activity [22]: 92%; residual activity [23]: 90%; residual activity [24]: 100%; residual activity [25]: 79%; residual activity [26]: 97%; inhibition [27]: 3.8%; residual activity [28]: 100%; residual activity [29]: 74%; residual activity [30]: 74%; residual activity [31]: 90%; residual activity [32]: 88%; residual activity [33]: 100%; residual activity [34]: 52%; residual activity [35]: 80%; inhibition [36]: 21.5%; residual activity [37]: 86%; residual activity [38]: 82%; inhibition [39]: 12.2%; residual activity [40]: 95%; residual activity [41]: 95%; residual activity [42]: 79%

Which residual activity [1] does the source give for CCC(=N\O)/C(C)=C/c1ccc(F)c(C)c1 [A-226] here?
Its residual activity is 100%.

And the residual activity [2]?
Its residual activity is 100%.

And the residual activity [3]?
Its residual activity is 92%.

What about the residual activity [4] of the same molecule?
The residual activity was 100%.

What about the residual activity [5] of the same molecule?
The residual activity was 50%.

What about the residual activity [6] of the same molecule?
Its residual activity is 90%.

And the residual activity [7]?
Its residual activity is 83%.

What about the residual activity [8] of the same molecule?
The residual activity was 100%.

And the residual activity [9]?
Its residual activity is 100%.

What about the inhibition [10] of the same molecule?
The inhibition was 16.7%.

What about the residual activity [11] of the same molecule?
The residual activity was 96%.

And the inhibition [12]?
The inhibition was 86.8%.

What about the residual activity [13] of the same molecule?
Its residual activity is 85%.

What about the residual activity [14] of the same molecule?
The residual activity was 98%.

What about the residual activity [15] of the same molecule?
Its residual activity is 97%.

And the residual activity [16]?
Its residual activity is 89%.

What about the residual activity [17] of the same molecule?
The residual activity was 100%.

What about the residual activity [18] of the same molecule?
Its residual activity is 72%.

And the residual activity [19]?
Its residual activity is 100%.

And the residual activity [20]?
Its residual activity is 100%.

And the residual activity [21]?
The residual activity was 84%.

And the residual activity [22]?
Its residual activity is 100%.

What about the residual activity [23] of the same molecule?
Its residual activity is 91%.

And the residual activity [24]?
Its residual activity is 99%.

What about the residual activity [25] of the same molecule?
Its residual activity is 100%.

What about the residual activity [26] of the same molecule?
Its residual activity is 100%.

And the inhibition [27]?
The inhibition was 0.56%.

What about the residual activity [28] of the same molecule?
The residual activity was 80%.

What about the residual activity [29] of the same molecule?
The residual activity was 100%.

And the residual activity [30]?
The residual activity was 100%.

What about the residual activity [31] of the same molecule?
Its residual activity is 100%.

And the residual activity [32]?
The residual activity was 100%.

And the residual activity [33]?
The residual activity was 100%.

And the residual activity [34]?
The residual activity was 100%.

And the residual activity [35]?
The residual activity was 100%.

What about the inhibition [36] of the same molecule?
The inhibition was 20.3%.

What about the residual activity [37] of the same molecule?
Its residual activity is 100%.

What about the residual activity [38] of the same molecule?
The residual activity was 100%.

What about the inhibition [39] of the same molecule?
The inhibition was 11.8%.

What about the residual activity [40] of the same molecule?
The residual activity was 100%.

What about the residual activity [41] of the same molecule?
The residual activity was 100%.

What about the residual activity [42] of the same molecule?
The residual activity was 97%.
